Experimental findings from US20260035384A1, “COMPOUND CONTAINING CYCLOHEXYL” (CHIA TAI TIANQING PHARMACEUTICAL GROUP CO., LTD., priority 2022, published 2026) are described below.

The structures appear in SMILES notation. Where a chain is given by its changes, count along the chain named. Read-outs that look alike come from different tables or passages of the source.

One data set has as its target T1, AR in VCaP cells (Homo sapiens, UniProt P10275).
T1 construct: Assay on Degradation Activity for AR in VCaP Cells; endogenous in cells; host or cells: VCaP cells
T1 sequence (P10275 1-920): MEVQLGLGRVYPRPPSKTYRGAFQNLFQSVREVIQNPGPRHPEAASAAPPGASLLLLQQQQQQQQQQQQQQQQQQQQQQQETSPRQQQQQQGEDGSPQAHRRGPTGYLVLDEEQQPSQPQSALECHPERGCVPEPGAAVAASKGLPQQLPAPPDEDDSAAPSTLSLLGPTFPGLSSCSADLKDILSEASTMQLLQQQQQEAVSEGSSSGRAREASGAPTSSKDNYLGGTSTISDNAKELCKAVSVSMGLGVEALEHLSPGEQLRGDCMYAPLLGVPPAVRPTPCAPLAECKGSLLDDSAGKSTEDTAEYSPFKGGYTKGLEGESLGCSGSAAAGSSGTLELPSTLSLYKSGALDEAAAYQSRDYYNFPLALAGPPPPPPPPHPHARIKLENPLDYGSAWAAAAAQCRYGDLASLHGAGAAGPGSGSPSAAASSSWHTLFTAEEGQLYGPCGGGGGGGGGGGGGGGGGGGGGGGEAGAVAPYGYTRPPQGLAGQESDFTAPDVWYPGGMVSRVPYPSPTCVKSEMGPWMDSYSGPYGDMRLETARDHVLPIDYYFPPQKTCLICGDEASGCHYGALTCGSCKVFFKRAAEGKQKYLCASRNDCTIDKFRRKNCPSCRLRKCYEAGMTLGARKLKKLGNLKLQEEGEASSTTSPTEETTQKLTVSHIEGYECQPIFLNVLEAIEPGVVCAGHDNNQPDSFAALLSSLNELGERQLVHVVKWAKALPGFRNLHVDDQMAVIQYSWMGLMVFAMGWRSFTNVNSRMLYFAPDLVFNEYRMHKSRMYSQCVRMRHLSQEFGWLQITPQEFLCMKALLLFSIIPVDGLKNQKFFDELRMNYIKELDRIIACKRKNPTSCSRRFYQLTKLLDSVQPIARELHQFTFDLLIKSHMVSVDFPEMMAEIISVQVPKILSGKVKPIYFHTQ
Nature of the data set: Assay on degradation activity for AR in VCaP cells (HTRF human androgen receptor detection kit). Type of data set: cell-based. The note with it: 24 h incubation. A digest of the protocol:
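VCaP cells seeded overnight in 2% CSS-FBS phenol red-free DMEM, then treated 24 h with compound at 1000 nM–0.977 nM final, in duplicate. Lysates probed with AR Eu cryptate/d2 antibody HTRF (2 h, 25° C., 665/620 nm); DC50 and Dmax from four-parameter dose-response fits.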

The next data set has as its system VCaP cells. Description: Assay on inhibitory activity for VCaP cell proliferation (CCK-8). Type of data set: cell-based. Particulars: 168 h incubation. The method, boiled down: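 VCaP cells seeded at 1×10^5 cells/mL in phenol red-free DMEM with 5% charcoal-stripped FBS, treated in duplicate at 10000–0.61 nM final. After 168 h incubation, viability was read with CCK-8.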

For another data set, the system named is LNCaP cells. Description: Assay on inhibitory activity for LNCaP cell proliferation (CCK-8). Type of data set: cell-based. Particulars: 168 h incubation. A digest of the protocol: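 Cells seeded at 1×10^5 cells/mL in phenol red-free 1640 with 2% CSS-FBS, treated at final 10000 nM-0.61 nM in duplicate. After 168 h incubation, viability read with CCK-8.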
The nature of data set [1]: In vitro stability in liver microsome. Type of data set: in vitro ADME. The note with it: human liver microsome 0.5 mg/mL, NADPH, 37° C. On the procedure:
Liver microsome incubation samples (species: human, monkey, rat, and mouse) were prepared by mixing a PBS buffer (pH=7.4), a liver microsome solution (0.5 mg/mL), a test compound, and an NADPH+MgCl2 solution and incubated at 37° C. and 300 rpm for 1 h. Zero-hour samples were prepared by mixing a PBS buffer (pH=7.4), a liver microsome solution (0.5 mg/mL), and a test compound. An acetonitrile solution containing an internal standard was added to the samples, and supernatants were prepared by protein precipitation, diluted, and then assayed by LC/MS/MS.

The nature of a further data set: Mouse pharmacokinetics. Type of data set: in vivo, ICR mice. On the procedure:
ICR mice weighing 18-22 g were randomized into groups of 9 after 3-5 days of acclimatization, and then intragastrically given the test compound solution at a dose of 10 mg/kg and intravenously injected with the test compound solution at a dose of 1 mg/kg.
Blood sampling time points for the intragastrical administration group were 15 min, 0.5 h, 1 h, 2 h, 3 h, 4 h, 6 h, 8 h, 10 h, and 24 h, and blood sampling time points for the intravenous injection administration group were […], 15 min, 0.5 h, 1 h, 2 h, 4 h, 6 h, 8 h, 10 h, and 24 h; blood was collected from the orbit to prepare plasma samples to be tested. 30 μL of each of the plasma samples to be tested and a standard curve sample were taken, and an acetonitrile solution containing an internal standard was added. Supernatants were obtained by protein precipitation, diluted, and then assayed by LC/MS/MS. Pharmacokinetic parameters were fitted using a non-compartmental model (see Table 6).

For another data set, the target named is T2, AR in LNCaP cells (Homo sapiens, UniProt P10275, T878A).
T2 construct: Assay on Degradation Activity for AR in LNCaP Cells; endogenous in cells; host or cells: LNCaP cells
T2 sequence (P10275 1-920 T878A): T1 sequence (P10275 1-920) with T878A
Nature of the data set: Assay on degradation activity for AR in LNCaP cells (HTRF human androgen receptor detection kit). Type of data set: cell-based. The note with it: 24 h incubation; for DC50: HTRF; for Dmax: maximum degradation rate. A digest of the protocol:
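LNCaP cells seeded in 2% CSS-FBS phenol red-free 1640 medium overnight, then treated in duplicate with 500 nM–0.488 nM compound for 24 h. AR in lysates quantified by HTRF (Eu cryptate/d2 antibodies, 2 h, 25 °C, 665/620 nm); DC50 and Dmax from four-parameter fits.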

[2] abbreviates: ICR, mouse, plasma, iv, 1 mg/kg, Mouse i.v. 1 mpk.
[3] abbreviates: ICR, mouse, plasma, iv, 1 mg/kg, Mouse i.v. 1 mpk, read-out: AUC.
[4] abbreviates: ICR, mouse, plasma, po, 10 mg/kg, Mouse i.g. 10 mpk.
Where [5] appears, read: ICR, mouse, plasma, po, 10 mg/kg, Mouse i.g. 10 mpk vs i.v. 1 mpk.
The mark [6] stands for this setting: ICR, mouse, plasma, po, 10 mg/kg, Mouse i.g. 10 mpk, read-out: AUC.
The mark [7] stands for this setting: ICR, mouse, plasma, po, 10 mg/kg, Mouse i.g. 10 mpk, read-out: Cmax.

`N#Cc1ccc(O[C@H]2CC[C@H](NC(=O)c3ccc(N4CCC(CN5Cc6ccc7c(C8CCC(=O)NC8=O)noc7c6C5)CC4)nn3)CC2)cc1Cl` (stereo partly shown) [Compound 17] registered a DC50 at AR in VCaP cells of at most 1 nM. For the same compound, the IC50 with VCaP cells (Homo sapiens, VCaP, 168 h) was under 1000 nM; in the data set with LNCaP cells (Homo sapiens), under 1000 nM. Further, in data set [1], the “Human liver microsome Residuals at 60 min (%)” value is over 85%. The same compound gave a clearance in the data set “Mouse pharmacokinetics” (setting [2]) of 4.72 mL/min/kg. Besides, the half-life is 7.28 h in the data set “Mouse pharmacokinetics” (setting [2]) and 6.82 h in “Mouse pharmacokinetics” (setting [4]). Also, the AUC in “Mouse pharmacokinetics” (setting [3]) is 3160 ng·h/mL; in “Mouse pharmacokinetics” (setting [6]), 14600 ng·h/mL. Besides, in the data set “Mouse pharmacokinetics” (setting [5]), the bioavailability was 46%. Also, the Cmax in the data set “Mouse pharmacokinetics” (setting [7]) was found to be 1160 ng/mL.

On AR in LNCaP cells, `N#Cc1ccc(O[C@H]2CC[C@H](NC(=O)c3ccc(N4CCC(CN5CCc6ccc7c(C8CCC(=O)NC8=O)noc7c6C5)CC4)nn3)CC2)cc1Cl` (stereo partly shown) [Compound 18] showed a 50% degradation concentration (DC50) of at most 20 nM and a Dmax of over 80%. The compound further gave a half-inhibitory concentration (IC50) in the data set with LNCaP cells (Homo sapiens) of under 1000 nM. Besides, the “Human liver microsome Residuals at 60 min (%)” value in data set [1] was over 85%. Also, in “Mouse pharmacokinetics” (setting [2]), the clearance was 2.7 mL/min/kg. Further, the AUC in the data set “Mouse pharmacokinetics” (setting [3]) was 5930 ng·h/mL. The compound further showed a half-life in the data set “Mouse pharmacokinetics” (setting [4]) of 5.52 h. In “Mouse pharmacokinetics” (setting [5]), this compound gave a bioavailability of 31%. Besides, the AUC in the data set “Mouse pharmacokinetics” (setting [6]) worked out at 18400 ng·h/mL. For the same compound, the Cmax in the data set “Mouse pharmacokinetics” (setting [7]) worked out at 1200 ng/mL.

Compound `N#Cc1ccc(O[C@H]2CC[C@H](NC(=O)c3ccc(N4CCN(CC5Cc6ccc7c(C8CCC(=O)NC8=O)noc7c6C5)CC4)nn3)CC2)cc1Cl` (stereo partly shown) [Compound 26] returned a 50% degradation concentration (DC50) on AR in VCaP cells of at most 1 nM. Also, the IC50 in the data set with VCaP cells (Homo sapiens, VCaP, 168 h) was under 100 nM; in the data set on LNCaP cells (Homo sapiens), under 1000 nM. Also, the “Human liver microsome Residuals at 60 min (%)” value in data set [1] is recorded as over 85%. This compound gave a clearance in the data set “Mouse pharmacokinetics” (setting [2]) of 2.78 mL/min/kg. The compound also had a half-life in the data set “Mouse pharmacokinetics” (setting [2]) of 7.58 h. Further, the AUC in “Mouse pharmacokinetics” (setting [3]) came to 5350 ng·h/mL; in the data set “Mouse pharmacokinetics” (setting [6]), 13200 ng·h/mL. The compound also returned a bioavailability in the data set “Mouse pharmacokinetics” (setting [5]) of 24.8%. The Cmax in the data set “Mouse pharmacokinetics” (setting [7]) is 886 ng/mL. Further, the “t1/2” value in the data set “Mouse pharmacokinetics” (Mouse i.g. 10 mpk) turned out to be 11 h.

With `N#Cc1ccc(O[C@H]2CC[C@H](NC(=O)c3ccc(N4CCN(CC5Cc6ccc7c(C8CCC(=O)NC8=O)noc7c6C5)CC4)nn3)CC2)cc1Cl` (stereo partly shown) [Compound 27], the DC50 at AR in VCaP cells is at most 1 nM. For the same compound, the IC50 with VCaP cells is under 100 nM. Also, in the data set on LNCaP cells, the IC50 was under 1000 nM. Besides, the “Human liver microsome Residuals at 60 min (%)” value in data set [1] was over 85%. For the same compound, in the data set “Mouse pharmacokinetics” (Mouse i.g. 10 mpk), the exposure (AUC) came to 20072 ng·h/mL, the “Cmax” value amounted to 1503 ng/mL and the “t1/2” value stood at 5.47 h. The “F(%)” value in the data set “Mouse pharmacokinetics” (Mouse i.g. 10 mpk vs i.v. 1 mpk) is listed as 35.85%. For the same compound, in the data set “Mouse pharmacokinetics” (Mouse i.v. 1 mpk, 1 mg/kg), the “AUC” value was 5599 ng·h/mL, the “Cl” value was found to be 2.63 mL/min/kg and the “t1/2” value amounted to 7.6 h.

As for `N#Cc1ccc(O[C@H]2CC[C@H](NC(=O)c3ccc(N4CCC5(CC4)CC(CN4Cc6ccc7c(C8CCC(=O)NC8=O)noc7c6C4)C5)nn3)CC2)cc1Cl.O=C(O)/C=C\C(=O)O` (stereo partly shown) [Compound 34], the Dmax at AR in LNCaP cells is over 80%. Besides, the IC50 with VCaP cells (Homo sapiens) was under 100 nM; with LNCaP cells (Homo sapiens) it was under 1000 nM. The “Human liver microsome Residuals at 60 min (%)” value in data set [1] is given as over 85%.

On to `N#Cc1ccc(O[C@H]2CC[C@H](NC(=O)c3ccc(C4CCN(CC5CN(c6cc7onc(C8CCC(=O)NC8=O)c7c7ccccc67)C5)CC4)nn3)CC2)cc1Cl` (stereo partly shown) [Compound 47], for which, at AR in LNCaP cells, the DC50 was at most 20 nM and the Dmax was over 80%. Also, the IC50 with VCaP cells (Homo sapiens) was under 10 nM. The “Human liver microsome Residuals at 60 min (%)” value in data set [1] is recorded as over 85%.

With `N#Cc1ccc(O[C@H]2CC[C@H](NC(=O)c3ccc(N4CCC(N5CC(CN6Cc7ccc8c(C9CCC(=O)NC9=O)noc8c7C6)C5)CC4)nn3)CC2)cc1Cl` (stereo partly shown) [Compound 90], at AR in VCaP cells, the DC50 was at most 1 nM. At AR in LNCaP cells, the DC50 was at most 20 nM and the Dmax is over 80%. The compound further showed an IC50 in the data set on VCaP cells (Homo sapiens) of under 10 nM. Further, the “Human liver microsome Residuals at 60 min (%)” value in data set [1] is listed as over 85%.

`N#Cc1ccc(O[C@H]2CC[C@H](NC(=O)c3ccc(N4CCC(N5CC(N6Cc7ccc8c(C9CCC(=O)NC9=O)noc8c7C6)C5)CC4)nn3)CC2)cc1Cl` (stereo partly shown) [Compound 94] displayed a DC50 at AR in VCaP cells of at most 1 nM. Further, the IC50 with VCaP cells (Homo sapiens) was under 100 nM; in the data set with LNCaP cells (Homo sapiens), under 1000 nM. The “Human liver microsome Residuals at 60 min (%)” value in data set [1] was over 85%.

In the case of `N#Cc1ccc(O[C@H]2CC[C@H](NC(=O)c3cnc(N4CCC(CN5Cc6ccc7c(C8CCC(=O)NC8=O)noc7c6C5)CC4)nc3)CC2)cc1Cl` (stereo partly shown) [Compound 119], the IC50 in the data set on VCaP cells (Homo sapiens, VCaP, 168 h) is under 100 nM; in the data set with LNCaP cells (Homo sapiens) it was under 1000 nM. The “Human liver microsome Residuals at 60 min (%)” value in data set [1] was over 85%. This compound showed a clearance in “Mouse pharmacokinetics” (setting [2]) of 5.8 mL/min/kg. The half-life is 11.5 h in “Mouse pharmacokinetics” (setting [2]) and 8.6 h in “Mouse pharmacokinetics” (setting [4]). Further, the figures for the AUC in “Mouse pharmacokinetics” (setting [3]) and in the data set “Mouse pharmacokinetics” (setting [6]) were 2720 ng·h/mL and 10600 ng·h/mL, respectively. Moreover, in “Mouse pharmacokinetics” (setting [5]), the bioavailability is 39%. Besides, the Cmax in the data set “Mouse pharmacokinetics” (setting [7]) is 559 ng/mL.
